Results on 20 compounds are retold here after US12325695B2, “5-(4-pyridyloxy)pyrazole compounds serving as TGF-βR1 kinase inhibitor” (JIANGSU AOSAIKANG PHARMACEUTICAL CO., LTD., priority 2019, dated 2025).

The test system of one data set is pSmad. The experiment in a line: Inhibitory activity assay on Smad phosphorylation (HEK-Blue-TGFβ cells, Quanti-Blue readout). It counts as cell-based. The settings on record: TGFβ stimulation, 24 hours, read-out: pSmad inhibition IC50. Here is the method: Experimental Embodiment 1: Inhibitory Activity Assay on Smad Phosphorylation
Both HEK-Blue-TGFβ cells and Quanti-Blue reagent were purchased from Invivogen Company. TGFβ was purchased from PeproTech.
The compounds to be tested were diluted 5 times with a row gun to the 8th concentration, that is, diluted from 1 mmol/L to 12.8 nmol/L, the final concentration of dimethyl sulfoxide was 100%, and a double hole experiment was set up. 2 μL of inhibitors of each concentration gradient, 18 μL of TGFβ (20 ng/mL), and 180 μL of cell suspension (140,000 cells/mL) were added to the microplate. At this time, the final concentration gradient of the compound was […] diluted to 0.13 nmol/L. The cell plate was placed at 37° C. in a 5% CO2 incubator for 24 hours. After the reaction was completed, 40 μL of cell culture supernatant was taken out from each well to a new transparent microtiter plate, 160 μL of Quanti-Blue reagent was added to each well, and then the reaction was carried out at 37° C. for 60 minutes. After the reaction was completed, the PerkinElmer Envision multi-label analyzer was used to read the absorption light at 630 nm.
The original data was converted into the inhibition rate, and the IC50 value can be obtained by curve fitting with four parameters.

Data set [1] can be described thus: Drug concentration in tumor tissue and plasma AUC in the CT26 tumor model study. It is filed as in vivo, BALB/c mice. The following applies: 50 mg/kg, twice a day, oral; for AUC: female, BALB/c, mouse, plasma. Here is the method:
(§1) Experimental Embodiment 3: Anti-Tumor Drug Efficacy Study of Mouse Colon Cancer CT-26 Cell BALB/c Mouse Subcutaneous Allograft Tumor Model In Vivo
(§2) Cell culture: mouse colon cancer CT-26 cells were cultured in monolayer in vitro, and the culture conditions were RPMI-1640 medium with 10% fetal bovine serum, 37° C. and 5% carbon dioxide incubator. Trypsin-ethylenediaminetetraacetic acid (EDTA) was used for routine digestion and passage twice a week. When the cell saturation was 80%-90% and the number reached the requirement, the cells were collected, counted, and inoculated.
(§3) Animals: BALB/c mice, female, 6-8 weeks old.
(§4) Tumor inoculation: 0.1 mL of DPBS cell suspension containing 3×10^5 CT26 cells was subcutaneously inoculated into the right groin of each mouse, and administration was started on the day of inoculation.

Data set [2] can be described thus: Pharmacokinetics study of cassette drug administration in vivo. The settings on record: male, mouse, plasma, CD-1 mice; for Vd: read-out: Vdss; for bioavailability: oral (1.5 mg/kg) vs injection (1 mg/kg), read-out: F (bioavailability). Set-up: species or system CD-1 male mice. The method, then: Experimental Embodiment 2: Pharmacokinetics Study of Cassette Drug Administration in Vivo
The purpose of this experiment is to evaluate the pharmacokinetic behavior of the compound after a single intravenous injection and intragastric administration, and to investigate the bioavailability after intragastric administration.
CD-1 male mice aged from 7 to 10 weeks were selected, and the doses for intravenous and oral administration were 1 mg/kg and 1.5 mg/kg, respectively. The mice were fasted for at least 12 hours before the administration, and resumed feeding 4 hours after the administration. The mice were free to drink during the entire experiment.
(§5) On the day of the experiment, animals in the intravenous group were given a single injection of the corresponding compound through the tail vein with a volume of 5 mL/kg; the oral group was given the corresponding compound by a single gavage with a volume of 5 mL/kg. The animals were weighed before administration, and the administration volume was calculated according to the body weight. Sample collection time: 0.083 hours, 0.25 hours, 0.5 hours, 1 hour, 2 hours, 4 hours, 8 hours, 24 hours in the injection group; 0.25 hours, 0.5 hours, 1 hour, 2 hours, 4 hours, 6 hours, 8 hours, 24 hours in the gavage group. Approximately 30 μL of whole blood was collected through the saphenous vein at each time point to prepare plasma for high-performance liquid chromatography-tandem mass spectrometry (LC-MS/MS) for concentration determination. All animals were euthanized by CO2 anesthesia after collecting PK samples at the last time point. The non-compartmental model of WinNonlin™ Version 6.3 (Pharsight, Mountain View, CA) pharmacokinetic software was used to process the plasma concentration, and the pharmacokinetic parameters were calculated using the linear and logarithmic trapezoidal method.

Data set [3] can be described thus: Pharmacokinetic studies in vivo (single compound). The following applies: CD-1 mice; for AUC(0-t) / clearance / half-life / Vd / Cmax / Tmax: male, mouse, plasma; for Vd: read-out: Vdss. Set-up: species or system CD-1 male mice. The method, then: Experiment 4: Pharmacokinetic Studies In Vivo
The purpose of this experiment is to evaluate the pharmacokinetic behavior of the compounds after a single intravenous injection and intragastric administration, and to investigate the bioavailability after intragastric administration.
[…] The mice were fasted for at least 12 hours before the administration, and resumed feeding 4 hours after the administration. The mice were free to drink during the entire experiment.
as §5, with “volume of 10 mL/kg. The” for “volume of 5 mL/kg. The”, “the injection group, 0.25 hours,” for “the injection group; 0.25 hours,”

Data set [4] deals with mouse colon cancer CT-26 cells. In words: Anti-tumor drug efficacy study, mouse colon cancer CT-26 cell BALB/c mouse subcutaneous allograft tumor model. It is filed as in vivo, BALB/c mice. The settings on record: 50 mg/kg, twice a day, oral. Here is the method:
as §1
The main purpose of this study is to study the anti-tumor drug efficacy of the tested compounds on the CT26 mouse allograft tumor model.
as §2, §3, §4
Experimental index: The experimental index was to investigate whether the tumor growth was inhibited, delayed or cured. The tumor diameter was measured with a vernier caliper twice a week. The calculation formula for tumor volume is: V=0.5 L×W^2, where L and W refer to the long diameter and short diameter of the tumor, respectively.

A word on the IC50: it is the midpoint of a concentration-inhibition curve. For orientation: AUC means the area under the concentration-time curve, a measure of exposure. Low readings indicate low exposure, high ones high exposure. A word on the AUC(0-t): it is the area under the concentration-time curve up to a stated or last time point. A lower AUC(0-t) goes with low exposure. What is called clearance is a measure of how efficiently the substance is removed, as volume per time. One may read the half-life as how long it takes for the measured level to halve. Low readings indicate rapid decline, high ones slow decline. One may read the bioavailability as the share of a dose that reaches the circulation, judged against a reference dose that is usually intravenous. The Cmax is the maximum level reached in the sampled fluid or tissue. In general, Tmax refers to the time from dosing to the highest level.

In the case of `Cc1cccc(-n2nc(C)cc2Oc2ccnc(Nc3ccnc(C(C)(C)O)c3)c2)n1` [Compound 9], the IC50 in the data set on pSmad stood at 268 nM.
Same read-out and setting: for `Cc1cccc(-n2nc3c(c2Oc2ccnc(Nc4cccc(C(N)=O)c4)c2)CCCC3)n1` [Compound 3] the value was 54.3 nM; for `Cc1cccc(-n2nc(C)cc2Oc2ccnc(Nc3cnn(CCO)c3)c2)n1` [Compound 10], 355 nM.
Take `Cc1cc(Oc2ccnc(Nc3cccc(C(N)=O)c3)c2)n(C2CCOCC2)n1` [Compound 14]: in data set [1], the “Drug concentration in tumor tissue 1 hour after administration” value was 11318 nmol/kg, the “Drug concentration in tumor tissue 12 hours after administration” value is recorded as 820 nmol/kg and the AUC worked out at 30.1 µM·h. In data set [2] (iv, injection (1 mg/kg)), the AUC(0-t) is 1.06 µM·h, the clearance stood at 37 mL/min/kg, the half-life was 1.37 h and the Vd amounted to 2.39 L/kg. Moreover, the bioavailability in data set [2] was 75.9%. In addition, in data set [2] (oral (1.5 mg/kg)), the exposure AUC(0-t) amounted to 1.16 µM·h, the Cmax amounted to 567 nM, the Tmax is 0.25 h and the half-life is 1.61 h. Further, in data set [3] (iv, injection, 1 mg/kg), the AUC(0-t) was 1.34 µM·h, the clearance is 31.5 mL/min/kg, the half-life was 1.17 h and the Vd came out at 1.64 L/kg. In data set [3] (oral, 2.5 mg/kg), the AUC(0-t) was 2.7 µM·h, the highest level (Cmax) was 1560 nM, the Tmax was found to be 0.5 h and the half-life was 1.15 h. For the same compound, in data set [3] (oral 2.5 mg/kg vs injection 1 mg/kg), the F is given as 80.9%. For the same compound, the IC50 with pSmad is 336 nM. In addition, in data set [4], the “% Inhibitory rate on Day 29” value was 81% and the “Mean tumor volume Day 29” value is given as 424.78 mm^3.
With `Cc1cccc(-n2nc(C)cc2Oc2ccnc(Nc3cnccn3)c2)n1` [Compound 8], in the data set with pSmad, the half-maximal inhibitory concentration (IC50) was determined as 684 nM.
In the case of `Cc1cccc(-n2nccc2Oc2ccnc(Nc3cccc(C(N)=O)c3)c2)n1` [Compound 2], the 50% inhibitory concentration (IC50) in the data set with pSmad stood at 247 nM.
For the compound `Cc1cccc(-n2nc(C)cc2Oc2ccnc(Nc3cccc(C(N)=O)c3)c2)n1` [Compound 6], in data set [2] (iv, injection (1 mg/kg)), the AUC(0-t) turned out to be 1.81 µM·h, the clearance worked out at 24.9 mL/min/kg, the half-life is 1.32 h and the Vd is 1.05 L/kg. In data set [2], the bioavailability turned out to be 54.6%. Also, in data set [2] (oral (1.5 mg/kg)), the AUC(0-t) stood at 1.45 µM·h, the Cmax turned out to be 804 nM, the Tmax worked out at 0.25 h and the half-life was 2.84 h. In addition, the IC50 with pSmad was 79.2 nM. In data set [4], the “% Inhibitory rate on Day 29” value was 73% and the “Mean tumor volume Day 29” value is listed as 601.7 mm^3.
As to `CC(C)c1cc(Oc2ccnc(Nc3cccc(C(N)=O)c3)c2)n(C2CCOCC2)n1` [Compound 19], in the data set on pSmad, the IC50 is 587 nM.
`Cc1cccc(-c2nn3c(c2-c2ccnc4ccc(C(N)=O)cc24)CCC3)n1` [Compound A, Galunisertib, reference compound]: in data set [1], the “Drug concentration in tumor tissue 1 hour after administration” value was found to be 988 nmol/kg, the “Drug concentration in tumor tissue 12 hours after administration” value came out at 180 nmol/kg and the area under the curve (AUC) turned out to be 6.17 µM·h. In addition, in data set [2] (iv, injection (1 mg/kg)), the AUC(0-t) was determined as 1.15 µM·h, the clearance is 37.3 mL/min/kg, the half-life was 0.477 h and the Vd is 0.679 L/kg. Further, in data set [2], the bioavailability was 34.9%. Further, in data set [2] (oral (1.5 mg/kg)), the area under the curve AUC(0-t) worked out at 0.586 µM·h, the peak level (Cmax) was 712 nM, the Tmax came to 0.25 h and the half-life is 1.45 h. In data set [3] (iv, injection, 1 mg/kg), the AUC(0-t) was 0.814 µM·h, the clearance came out at 56 mL/min/kg, the half-life was 0.45 h and the Vd amounted to 1.31 L/kg. Further, in data set [3] (oral, 5 mg/kg), the AUC(0-t) was 1.37 µM·h, the highest level (Cmax) was 1840 nM, the Tmax is 0.25 h and the half-life is 1.1 h. Also, the F in data set [3] (oral 5 mg/kg vs injection 1 mg/kg) is 33.5%. Besides, in data set [4], the “% Inhibitory rate on Day 29” value amounted to 66% and the “Mean tumor volume Day 29” value is on record as 758.19 mm^3.
For `CCc1cc(Oc2ccnc(Nc3cccc(C(N)=O)c3)c2)n(-c2cccc(C)n2)n1` [Compound 4], in the data set on pSmad, the IC50 turned out to be 53.8 nM.
Regarding `NC(=O)c1cccc(Nc2cc(Oc3c4c(nn3C3CCOCC3)CCCC4)ccn2)c1` [Compound 17], in the data set on pSmad, the concentration for half-maximal inhibition (IC50) was 621 nM.
As to `Cc1cccc(-n2nc(C)cc2Oc2ccnc(Nc3cnn(CC(C)(C)O)c3)c2)n1` [Compound 5], the IC50 in the data set with pSmad stood at 441 nM.
`Cc1cccc(-n2nc(C)cc2Oc2ccnc(Nc3cnn(CC(C)C)c3)c2)n1` [Compound 7]: the IC50 in the data set with pSmad turned out to be 354 nM.
On to `Cc1cccc(-n2nc(C)cc2Oc2ccnc(Nc3cccc(C(N)=O)c3)c2)c1` [Compound 1], for which the IC50 with pSmad is 65.5 nM.
For `Cc1cccc(-n2nc(C)cc2Oc2ccnc(Nc3ccn(CC(C)(C)O)n3)c2)n1` [Compound 11], in the data set on pSmad, the IC50 turned out to be 191 nM.
`NC(=O)c1cccc(Nc2cc(Oc3cc(C4CC4)nn3C3CCOCC3)ccn2)c1` [Trifluoroacetate of compound 18]: the IC50 in the data set on pSmad is 283 nM.
For the compound `Cc1nn(C2CCOCC2)c(Oc2ccnc(Nc3cccc(C(N)=O)c3)c2)c1C` [Compound 15], the concentration for half-maximal inhibition (IC50) in the data set on pSmad is 416 nM.
For the compound `COc1cccc(-n2nc(C)cc2Oc2ccnc(Nc3cccc(C(N)=O)c3)c2)n1` [Compound 12], the IC50 in the data set with pSmad is 432 nM.
With `NC(=O)c1cccc(Nc2cc(Oc3c4c(nn3C3CCOCC3)CCC4)ccn2)c1` [Compound 16], in the data set on pSmad, the IC50 worked out at 166 nM.
On to `Cc1cccc(-n2nc3c(c2Oc2ccnc(Nc4cccc(C(N)=O)c4)c2)CCC3)n1` [Compound 13], for which the IC50 in the data set on pSmad is 59.6 nM.
